test system: TFEB; test: TFEB Nuclear Translocation Assay; type: cell-based; conditions: read-out: EC50 of TFEB activation

`CC(C)S(=O)(=O)n1ccc(S(=O)(=O)n2nc(N3CCC(F)CC34CC4)c3c(Cl)cc(F)cc32)c1` (centres unmarked) [Compound 192, 4-chloro-6-fluoro-3-(7-fluoro-4-azaspiro [2.5]octan-4-yl)-1-(1-isopropylsulfonylpyrrol-3-yl) sulfonyl-indazole] and `CC(C)S(=O)(=O)n1ccc(S(=O)(=O)n2nc(N3CCCC34CC4)c3c(Cl)cc(F)cc32)c1` [Compound 188, 3-(4-azaspiro [2.4]heptan-4-yl)-4-chloro-6-fluoro-1-(1-isopropylsulfonylpyrrol-3-yl) sulfonyl-indazole] cannot be ordered by EC50: at most 1 µM for the first, at most 1 µM for the second.

`CC(C)S(=O)(=O)c1ccc(S(=O)(=O)n2nc(N3CCN(c4ncc(F)cc4F)CC34CC4)c3c(Cl)cccc32)cc1` [Compound 24, 4-chloro-3-[7-(3,5-difluoro-2-pyridyl)-4,7-diazaspiro [2.5]octan-4-yl]-1-(4-isopropylsulfonylphenyl) sulfonyl-indazole] and `CC(C)S(=O)(=O)c1ccc(S(=O)(=O)n2nc(N3CCN(c4ccc(F)cn4)CC34CC4)c3c(Cl)cccc32)cc1` [Compound 23, 4-chloro-3-[7-(5-fluoro-2-pyridyl)-4,7-diazaspiro [2.5]octan-4-yl]-1-(4-isopropylsulfonylphenyl) sulfonyl-indazole] cannot be ordered by EC50: at most 1 µM for the first, at most 1 µM for the second.

`CC(C)S(=O)(=O)n1ccc(S(=O)(=O)n2nc(N3CCN(c4ccc(F)cn4)CC34CC4)c3c(Cl)cc(F)cc32)c1` [Compound 161, 4-chloro-6-fluoro-3-[7-(5-fluoro-2-pyridyl)-4,7-diazaspiro [2.5]octan-4-yl]-1-(1-isopropylsulfonylpyrrol-3-yl) sulfonyl-indazole] and `CC(C)S(=O)(=O)n1ccc(S(=O)(=O)n2nc(N3CCN(c4ncc(F)cn4)CC34CC4)c3c(F)cc(F)cc32)c1` [Compound 166, 4,6-difluoro-3-(7-(5-fluoropyrimidin-2-yl)-4,7-diazaspiro [2.5]octan-4-yl)-1-((1-(isopropylsulfonyl)-1H-pyrrol-3-yl)sulfonyl)-1H-indazole] cannot be ordered by EC50: at most 1 µM for the first, at most 1 µM for the second.

`CC(C)S(=O)(=O)c1ccc(S(=O)(=O)n2nc(N3CCN(c4ncc(F)cn4)C[C@H]3C3CC3)c3c(Cl)cccc32)cc1` (single isomer, unassigned) [Compound 61] and `CC(C)S(=O)(=O)c1ccc(S(=O)(=O)n2nc(N3CCN(c4ncc(F)cn4)CC3C3CC3)c3c(Cl)cc(F)cc32)cc1` (centres unmarked) [Compound 51, 4-chloro-3-(2-cyclopropyl-4-(5-fluoropyrimidin-2-yl)piperazin-1-yl)-6-fluoro-1-((4-(isopropylsulfonyl)phenyl)sulfonyl)-1H-indazole] cannot be ordered by EC50: at most 1 µM for the first, at most 1 µM for the second.

`O=S(=O)(c1ccc(S(=O)(=O)C(F)(F)F)cc1)n1nc(N2CCN(c3ncc(F)cn3)CC23CC3)c2c(Cl)cccc21` [Compound 52, 4-chloro-3-(7-(5-fluoropyrimidin-2-yl)-4,7-diazaspiro [2.5]octan-4-yl)-1-((4-((trifluoromethyl)sulfonyl)phenyl)sulfonyl)-1H-indazole] and `O=S(=O)(c1ccc(S(=O)(=O)n2nc(N3CCN(c4ncc(F)cn4)CC34CC4)c3c(Cl)cccc32)cc1)C1CC1` [Compound 29, 4-chloro-1-((4-(cyclopropylsulfonyl)phenyl)sulfonyl)-3-(7-(5-fluoropyrimidin-2-yl)-4,7-diazaspiro [2.5]octan-4-yl)-1H-indazole] cannot be ordered by EC50: at most 1 µM for the first, at most 1 µM for the second.

`CC(C)S(=O)(=O)n1ccc(S(=O)(=O)n2nc(N3CCN(c4ncc(Cl)cc4F)CC34CC4)c3c(Cl)nccc32)c1` [Compound 153, 4-chloro-3-(7-(5-chloro-3-fluoropyridin-2-yl)-4,7-diazaspiro[2.5]octan-4-yl)-1-((1-(isopropylsulfonyl)-1H-pyrrol-3-yl)sulfonyl)-1H-pyrazolo[4,3-c]pyridine] and `CC(C)S(=O)(=O)n1ccc(S(=O)(=O)n2nc(N3CCN(c4ncc(F)cn4)CC34CC4)c3c(F)cc(Cl)cc32)c1` [Compound 167, 6-chloro-4-fluoro-3-(7-(5-fluoropyrimidin-2-yl)-4,7-diazaspiro [2.5]octan-4-yl)-1-((1-(isopropylsulfonyl)-1H-pyrrol-3-yl)sulfonyl)-1H-indazole] cannot be ordered by EC50: at most 1 µM for the first, at most 1 µM for the second.

Going from `CC(F)(F)c1ccc(S(=O)(=O)n2nc(N3CCN(c4ncc(F)cn4)CC34CC4)c3c(Cl)cc(F)cc32)cc1` [Compound 91, 4-chloro-1-[4-(1,1-difluoroethyl)phenyl]sulfonyl-6-fluoro-3-[7-(5-fluoropyrimidin-2-yl)-4,7-diazaspiro [2.5]octan-4-yl]indazole] to `CC(F)(F)c1ccc(S(=O)(=O)n2nc(N3CCN(c4ncc(F)cn4)CC34CC4)c3c(O)cccc32)cc1` [Compound 134, 1-[4-(1,1-difluoroethyl)phenyl]sulfonyl-3-[7-(5-fluoropyrimidin-2-yl)-4,7-diazaspiro [2.5]octan-4-yl]indazol-4-ol], the EC50 rises from at most 1 µM to at least 10 µM.

`CC(F)(F)c1ccc(S(=O)(=O)n2nc(N3CCC3C(F)(F)F)c3c(Cl)cccc32)cc1` (centres unmarked) [Compound 104, 4-chloro-1-[4-(1,1-difluoroethyl)phenyl]sulfonyl-3-[2-(trifluoromethyl)azetidin-1-yl]indazole] and `CC(F)(F)c1ccc(S(=O)(=O)n2nc(N3CCN(C4COC4)CC3C(F)(F)F)c3c(Cl)cccc32)cc1` (centres unmarked) [Compound 120, 4-chloro-1-((4-(1,1-difluoroethyl)phenyl)sulfonyl)-3-(4-(oxetan-3-yl)-2-(trifluoromethyl)piperazin-1-yl)-1H-indazole] cannot be ordered by EC50: at most 1 µM for the first, at most 1 µM for the second.

`CC(F)(F)c1ccc(S(=O)(=O)n2nc(N3CCN(c4ncc(F)cn4)CC34CC4)c3c(Cl)cccc32)cn1` [Compound 135, 4-chloro-1-[[6-(1,1-difluoroethyl)-3-pyridyl]sulfonyl]-3-[7-(5-fluoropyrimidin-2-yl)-4,7-diazaspiro [2.5]octan-4-yl]indazole] and `O=S(=O)(c1ccc(C(F)(F)CF)cc1)n1nc(N2CCN(c3ncc(F)cn3)CC23CC3)c2c(Cl)cccc21` [Compound 98, 4-chloro-3-[7-(5-fluoropyrimidin-2-yl)-4,7-diazaspiro [2.5]octan-4-yl]-1-[4-(1,1,2-trifluoroethyl)phenyl]sulfonyl-indazole] cannot be ordered by EC50: at most 1 µM for the first, at most 1 µM for the second.

`CC(C)S(=O)(=O)c1ccc(S(=O)(=O)n2nc(N3CCN(c4ncc(F)cn4)CC3C(F)(F)F)c3c(Cl)cccc32)cc1` (centres unmarked) [Compound 67, 4-chloro-3-[4-(5-fluoropyrimidin-2-yl)-2-(trifluoromethyl)piperazin-1-yl]-1-(4-isopropylsulfonylphenyl) sulfonyl-indazole] and `CC(F)(F)c1ccc(S(=O)(=O)n2nc(N3CCN(c4ncc(F)cn4)C[C@H]3C(F)(F)F)c3c(Cl)cccc32)cc1` [Compound 106, 4-chloro-1-[4-(1,1-difluoroethyl)phenyl]sulfonyl-3-[(2S)-4-(5-fluoropyrimidin-2-yl)-2-(trifluoromethyl)piperazin-1-yl]indazole] cannot be ordered by EC50: at most 1 µM for the first, at most 1 µM for the second.

`CC(C)S(=O)(=O)n1ccc(S(=O)(=O)n2nc(N3CCN(c4nc(Cl)ns4)CC34CC4)c3c(Cl)cc(F)cc32)c1` [Compound 156, 3-chloro-5-[4-[4-chloro-6-fluoro-1-(1-isopropylsulfonylpyrrol-3-yl)sulfonyl-indazol-3-yl]-4,7-diazaspiro [2.5]octan-7-yl]-1,2,4-thiadiazole] and `CC(C)S(=O)(=O)n1ccc(S(=O)(=O)n2nc(N3CCN(c4ncc(F)cn4)CC34CC4)c3c(Cl)cccc32)c1` [Compound 111, 4-chloro-3-[7-(5-fluoropyrimidin-2-yl)-4,7-diazaspiro [2.5]octan-4-yl]-1-(1-isopropylsulfonylpyrrol-3-yl) sulfonyl-indazole] cannot be ordered by EC50: at most 1 µM for the first, at most 1 µM for the second.

`CC(C)(C)S(=O)(=O)n1ccc(S(=O)(=O)n2nc(N3CCN(c4ncc(F)cn4)CC34CC4)c3c(F)cc(F)cc32)c1` [Compound 172, 1-((1-(tert-butylsulfonyl)-1H-pyrrol-3-yl)sulfonyl)-4,6-difluoro-3-(7-(5-fluoropyrimidin-2-yl)-4,7-diazaspiro [2.5]octan-4-yl)-1H-indazole] and `CC(C)S(=O)(=O)c1ccc(S(=O)(=O)n2nc(N3CCN(c4ccc(F)cn4)CC34CC4)c3c(F)cc(F)cc32)cc1` [Compound 19, 4,6-difluoro-3-[7-(5-fluoro-2-pyridyl)-4,7-diazaspiro [2.5]octan-4-yl]-1-(4-isopropylsulfonylphenyl) sulfonyl-indazole] cannot be ordered by EC50: at most 1 µM for the first, at most 1 µM for the second.

`CC(C)S(=O)(=O)c1ccc(S(=O)(=O)n2nc(N3CCN(c4ncc(Cl)cn4)CC34CC4)c3c(Cl)cccc32)s1` [Compound 43, 4-chloro-3-[7-(5-chloropyrimidin-2-yl)-4,7-diazaspiro [2.5]octan-4-yl]-1-[(5-isopropylsulfonyl-2-thienyl)sulfonyl]indazole] and `CC(C)S(=O)(=O)c1ccc(S(=O)(=O)n2nc(N3CCN(c4ccc(F)cn4)CC34CC4)c3c(Cl)cccc32)s1` [Compound 42, 4-chloro-3-(7-(5-fluoropyridin-2-yl)-4,7-diazaspiro [2.5]octan-4-yl)-1-((5-(isopropylsulfonyl)thiophen-2-yl)sulfonyl)-1H-indazole] cannot be ordered by EC50: at most 1 µM for the first, at most 1 µM for the second.

`CC(C)S(=O)(=O)c1ccc(S(=O)(=O)n2nc(N3CCC(Cl)=C[C@H]3C(F)(F)F)c3c(Cl)cccc32)cc1` [Compound 81, 4-chloro-3-[(6S)-4-chloro-6-(trifluoromethyl)-3,6-dihydro-2H-pyridin-1-yl]-1-(4-isopropylsulfonylphenyl)sulfonyl-indazole] and `CC(C)S(=O)(=O)c1ccc(S(=O)(=O)n2nc(N3CCC(=O)CC3C(F)(F)F)c3c(Cl)cccc32)cc1` (centres unmarked) [Compound 84, 1-[4-chloro-1-(4-isopropylsulfonylphenyl)sulfonyl-indazol-3-yl]-2-(trifluoromethyl)piperidin-4-one] cannot be ordered by EC50: at most 1 µM for the first, at most 1 µM for the second.

For `CC(F)(F)c1ccc(S(=O)(=O)n2nc(N3CCN(C(C)(C)CF)CC34CC4)c3c(Cl)cccc32)cc1` [Compound 128, 4-chloro-1-((4-(1,1-difluoroethyl)phenyl)sulfonyl)-3-(7-(1-fluoro-2-methylpropan-2-yl)-4,7-diazaspiro [2.5]octan-4-yl)-1H-indazole], the EC50 was at most 1 µM.

Reference: patent US20250333406A1, “SULFONYL CYCLIC DERIVATIVES, AND COMPOSITIONS AND METHODS THEREOF” (Lysoway Therapeutics, Inc., priority 2023, published 2025)
